The text below walks through data of patent publication US20250213707A1, “COMPOUND FOR INCREASING EFFICACY OF ONCOLYTIC VIRUSES” (ABLEVIA BIOTECH GMBH, priority 2022, published 2025).

The subject of assay [1] is polyclonal antibody ab6982. In words: Epitope mapping of polyclonal antibody ab6982 against cyclic peptides of Ad5 fiber and hexon (peptide array). It is filed as binding, rabbits. The text has this: Polyclonal antibody ab6982 (Abcam) was generated by immunizing rabbits with purified AdV. It reacts with all capsid proteins of Ad5 including hexon, fiber and penton. It was shown that the antibody neutralizes Ad5 infection in a bioassay at 1000 adenovirus 5 particles/ml, a 50% inactivation of the adenovirus can be achieved at a 1/25,000 dilution of the antibody. In order to identify epitopic regions that could contain peptides for ab6982 paratope binding, the antibody was mapped against the sequences of fiber (NCBI Reference Sequence: AP 000226.1) and hexon protein (GenBank: BAG48782.1). […] The binding signal of this antibody to the array yielded several peptides that were aligned and clustered against the sequence of the protein. The peptide clusters were named cluster1-7 (fiber protein) and clusters8-16 (hexon protein) according to their ranked order of cyclic peptide hits (i.e. cluster contains the strongest binders, cluster2 the second strongest etc.). Below are the aligments of the corresponding peptides that bind to polyclonal antibody ab6982.

The subject of assay [2] is IgG from human donors (anti-AAV antibodies). In words: Screen for anti-AAV antibodies in human sera, 2452 linear 15-amino-acid AAV peptides on microarrays (Table 1). It is filed as binding. More on the design: key to group I: X: the deduplicated aggregate of the respective top 10 peptide hits for each donor was compiled and designated as group I; key to group II: X: the deduplicated aggregate of the respective top 25 peptide hits for each donor was compiled and designated as group II; key to group III: X: the deduplicated aggregate of the respective top 50 peptide hits for each donor was compiled and designated as group III. To be noted: for group I: membership in deduplicated aggregate of top 10 peptide hits for each donor. An outline of the steps:
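Protein G-purified IgG from human donor blood incubated with microarrays of 2452 linear 15-mer peptides from 16 AAVs; binding read by fluorescence. Background-subtracted signals ranked per donor, with top 10, 25, 50 and 250 hits pooled and deduplicated into groups I-IV.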

Setting [3] is: cyclic peptides of fiber protein (clusters 1-7).
Setting [4] is: cyclic peptides of hexon protein (clusters 8-16).
Where [5] appears, read: X = peptide belongs to the deduplicated aggregate of the top 50 peptide hits for each donor, linear 15-amino-acid AAV peptides, IgG binding by fluorescence.
Where [6] appears, read: human donor IgG binding to linear 15-amino-acid AAV peptides on microarray, fluorescence.
[7] abbreviates: membership in deduplicated aggregate of top 25 peptide hits for each donor, human donor IgG binding to linear 15-amino-acid AAV peptides on microarray, fluorescence.
The mark [8] stands for this setting: membership in deduplicated aggregate of top 50 peptide hits for each donor, human donor IgG binding to linear 15-amino-acid AAV peptides on microarray, fluorescence.
Where [9] appears, read: X = peptide belongs to the deduplicated aggregate of the top 25 peptide hits for each donor, linear 15-amino-acid AAV peptides, IgG binding by fluorescence.
Setting [10] is: X = peptide in the deduplicated aggregate of the top 50 peptide hits for each donor (top 17.5% of all peptides screened), linear 15-amino-acid AAV peptides on microarrays, human donor IgG, fluorescence.

For 206 (YTFSYIA) [compound 206], the “antibody binding signal ranking from the microarray experiment” value (from here on “antibody binding signal ranking”) in assay [1] (setting [3]) is 181.

Take 272 (VVLYSEDVDIETP) [compound 272]: the “antibody binding signal ranking” value in assay [1] (setting [4]) is reported as 049.

On to 268 (IETPDTH) [compound 268], for which, in assay [1] (setting [4]), the “antibody binding signal ranking” value was 045.

185 (DPEYWNF) [compound 185]: the “antibody binding signal ranking” value in assay [1] (setting [3]) was found to be 053.

Regarding 231 (EDEVDEQAEQ) [compound 231], the “antibody binding signal ranking” value in assay [1] (setting [4]) was 22.

On to 298 (TRYFSMW) [compound 298], for which, in assay [1] (setting [4]), the “antibody binding signal ranking” value worked out at 073.

With 195 (YINEIFATSSYTF) [compound 195], the “antibody binding signal ranking” value in assay [1] (setting [3]) was determined as 055.

192 (NSFLDPEYWN) [compound 192]: the “antibody binding signal ranking” value in assay [1] (setting [3]) came out at 187.

On to 227 (EVDEQAE) [compound 227], for which the “antibody binding signal ranking” value in assay [1] (setting [4]) was 17.

As to 259 (VDEQAEQQKTHVF) [compound 259], in assay [1] (setting [4]), the “antibody binding signal ranking” value is 041.

Turning to 247 (DDDNEDE) [compound 247], in assay [1] (setting [4]), the “antibody binding signal ranking” value stood at 096.

In the case of 236 (NLEEEDDDNEDEV) [compound 236], the “antibody binding signal ranking” value in assay [1] (setting [4]) is 029.

For 284 (DIETPDTHISYMP) [compound 284], the “antibody binding signal ranking” value in assay [1] (setting [4]) worked out at 064.

For 270 (VLYSEDVDIE) [compound 270], the “antibody binding signal ranking” value in assay [1] (setting [4]) was 047.

Take 187 (VLLNNSFLDPEYW) [compound 187]: in assay [1] (setting [3]), the “antibody binding signal ranking” value was 088.

Turning to 307 (MLANYNIGYQGFY) [compound 307], in assay [1] (setting [4]), the “antibody binding signal ranking” value turned out to be 123.

For the substance 249 (EEDDDNE) [compound 249], the “antibody binding signal ranking” value in assay [1] (setting [4]) is 108.

Regarding 197 (ATSSYTF) [compound 197], the “antibody binding signal ranking” value in assay [1] (setting [3]) is 080.

Turning to 306 (ANYNIGYQGF) [compound 306], the “antibody binding signal ranking” value in assay [1] (setting [4]) is reported as 122.

264 (EAATALEINL) [compound 264]: in assay [1] (setting [4]), the “antibody binding signal ranking” value was 124.

In the case of 198 (EIFATSSYTF) [compound 198], the “antibody binding signal ranking” value in assay [1] (setting [3]) came out at 089.

181 (PEYWNFR) [compound 181]: in assay [1] (setting [3]), the “antibody binding signal ranking” value worked out at 031.

With 291 (IPESYKDRMYSFF) [compound 291], the “antibody binding signal ranking” value in assay [1] (setting [4]) came to 107.

On to 225 (EDDDNEDEVDEQA) [compound 225], for which the “antibody binding signal ranking” value in assay [1] (setting [4]) is listed as 12.

Regarding 199 (NEIFATSSYTFSY) [compound 199], the “antibody binding signal ranking” value in assay [1] (setting [3]) turned out to be 092.

As for 286 (ETPDTHISYM) [compound 286], in assay [1] (setting [4]), the “antibody binding signal ranking” value is listed as 071.

Regarding 257 (VDEQAEQQKT) [compound 257], in assay [1] (setting [4]), the “antibody binding signal ranking” value is listed as 036.

As to 230 (EDEVDEQAEQQKT) [compound 230], the “antibody binding signal ranking” value in assay [1] (setting [4]) was 21.

For the substance 211 (LEINLEE) [compound 211], the “antibody binding signal ranking” value in assay [1] (setting [4]) is 04.

On to 252 (EEDDDNEDEVDEQ) [compound 252], for which the “antibody binding signal ranking” value in assay [1] (setting [4]) is 148.

For 214 (ALEINLEEED) [compound 214], the “antibody binding signal ranking” value in assay [1] (setting [4]) is recorded as 07.

176 (SMSFSWDWSGHNY) [compound 176]: the “antibody binding signal ranking” value in assay [1] (setting [3]) amounted to 176.

For 265 (LYSEDVDIET) [compound 265], the “antibody binding signal ranking” value in assay [1] (setting [4]) was 039.

With 255 (EVDEQAEQQK) [compound 255], the “antibody binding signal ranking” value in assay [1] (setting [4]) was determined as 030.

Take 229 (VDEQAEQ) [compound 229]: in assay [1] (setting [4]), the “antibody binding signal ranking” value is recorded as 20.

On to 297 (YKDRMYSFFR) [compound 297], for which the “antibody binding signal ranking” value in assay [1] (setting [4]) was found to be 160.

For the substance 269 (VDIETPDTHI) [compound 269], the “antibody binding signal ranking” value in assay [1] (setting [4]) is listed as 046.

Regarding 179 (FLDPEYWNFR) [compound 179], the “antibody binding signal ranking” value in assay [1] (setting [3]) was 017.

Take 208 (ALEINLEEEDDDN) [compound 208]: the “antibody binding signal ranking” value in assay [1] (setting [4]) is 01.

Turning to 202 (IFATSSY) [compound 202], the “antibody binding signal ranking” value in assay [1] (setting [3]) is given as 104.

In the case of 253 (EEDDDNEDEV) [compound 253], the “antibody binding signal ranking” value in assay [1] (setting [4]) came to 185.

203 (INEIFATSSY) [compound 203]: the “antibody binding signal ranking” value in assay [1] (setting [3]) stood at 110.

241 (LEEEDDDNEDEVD) [compound 241]: the “antibody binding signal ranking” value in assay [1] (setting [4]) turned out to be 053.

Turning to 180 (SFLDPEYWNF) [compound 180], in assay [1] (setting [3]), the “antibody binding signal ranking” value is listed as 018.

As to “319 (EQYGSVSTNLQRGNR; REGION 1..15: note = peptide derived from viral capsid protein) [compound 319]”, the “group III” value in assay [2] (setting [5]) is recorded as “X”.

ESVPDPQPIGEPPA [SEQ ID NO: 1947]: in assay [2] (setting [6]), the “group I” value is on record as “X”. Further, the “group II” value in assay [2] (setting [7]) was “X”. Also, the “group III” value in assay [2] (setting [8]) is given as “X”.

Take “288 (VQDSTTTIANNLTST; REGION 1..15: note = peptide derived from viral capsid protein) [compound 288]”: the “group II” value in assay [2] (setting [9]) was “X”. The “group III” value in assay [2] (setting [5]) was “X”.

For the substance “431 (EIKTTNPVATEEYGI; REGION 1..15: note = peptide derived from viral capsid protein) [compound 431]”, in assay [2] (setting [10]), the “group III” value is reported as “X”.

Regarding “DSQWLGDRVITTST (REGION 1..14: note = peptide derived from viral capsid protein) [SEQ ID NO: 1892]”, the “group I” value in assay [2] (setting [6]) is on record as “X”. Also, the “group II” value in assay [2] (setting [7]) is recorded as “X”. The “group III” value in assay [2] (setting [8]) is reported as “X”.

Consider “YHLNGRDSLVNPGP (REGION 1..14: note = peptide derived from viral capsid protein) [SEQ ID NO: 1904]”, for which the “group I” value in assay [2] (setting [6]) was “X”. In assay [2] (setting [7]), the “group II” value is “X”. The “group III” value in assay [2] (setting [8]) is “X”.

As for “EEEIKTTNPVATEE (REGION 1..14: note = peptide derived from viral capsid protein) [SEQ ID NO: 1935]”, the “group I” value in assay [2] (setting [6]) is recorded as “X”. Further, in assay [2] (setting [7]), the “group II” value was “X”. For the same substance, the “group III” value in assay [2] (setting [8]) was “X”.

As to PVPADPPTTESQAK [SEQ ID NO: 1931], the “group I” value in assay [2] (setting [6]) is given as “X”. Moreover, the “group II” value in assay [2] (setting [7]) is on record as “X”. For the same substance, the “group III” value in assay [2] (setting [8]) is “X”.

Consider “296 (NTPVPADPPTTFNQA; REGION 1..15: note = peptide derived from viral capsid protein) [compound 296]”, for which, in assay [2] (setting [5]), the “group III” value was “X”.

Consider “284 (NVGGQMATNNQSSTT; REGION 1..15: note = peptide derived from viral capsid protein) [compound 284]”, for which the “group II” value in assay [2] (setting [9]) is reported as “X”. The “group III” value in assay [2] (setting [5]) is “X”.

Regarding “339 (GNNFTFSYTFEDVPF; REGION 1..15: note = peptide derived from viral capsid protein) [compound 339]”, the “group III” value in assay [2] (setting [5]) is given as “X”.

For “281 (SKPSTSSDAEAGPSG; REGION 1..15: note = peptide derived from viral capsid protein) [compound 281]”, the “group II” value in assay [2] (setting [9]) is “X”. Moreover, in assay [2] (setting [5]), the “group III” value is reported as “X”.

Regarding “DKAYDRQLDSGDNP (REGION 1..14: note = peptide derived from viral capsid protein) [SEQ ID NO: 1926]”, in assay [2] (setting [6]), the “group I” value is reported as “X”. Moreover, in assay [2] (setting [7]), the “group II” value is on record as “X”. Also, in assay [2] (setting [8]), the “group III” value was “X”.

On to “430 (NTPVPADPPTTFNQS; REGION 1..15: note = peptide derived from viral capsid protein) [compound 430]”, for which the “group III” value in assay [2] (setting [10]) was “X”.

For the substance “286 (VLEPFGLVEEGAKTA; REGION 1..15: note = peptide derived from viral capsid protein) [compound 286]”, in assay [2] (setting [9]), the “group II” value was “X”. Also, the “group III” value in assay [2] (setting [5]) is listed as “X”.

For “312 (NEADAAALEHDKAYD; REGION 1..15: note = peptide derived from viral capsid protein) [compound 312]”, in assay [2] (setting [5]), the “group III” value is recorded as “X”.

Regarding “408 (STTVTQNNNSEFAWP; REGION 1..15: note = peptide derived from viral capsid protein) [compound 408]”, in assay [2] (setting [10]), the “group III” value is reported as “X”.
